Source: ChEMBL document CHEMBL3727357, “Compositions and methods for inhibiting g protein signaling” (2010)
One block for each compound: values may come before it. Activity calls are given as the source filed them. The calls are words filed in the database; no cut-off is given here.

Columns and labels:
Mus musculus [1] = assay: Antiinflammatory activity in Swiss-Webster mouse assessed as inhibition of carrageenan-induced paw edema at 2.5 mg/kg, ip administered 1 hr followed by carrageenan challenge measured 3 times every 2 hrs; assay type: functional, organism-based
Mus musculus [2] = assay: Antiinflammatory activity in Swiss-Webster mouse carrageenan-induced paw edema model assessed as inhibition of neutrophils recruitment in edematous fluid at 2.5 mg/kg, ip administered 1 hr followed by carrageenan challenge; assay type: functional, organism-based
Mus musculus [3] = assay: Antiinflammatory activity in Swiss-Webster mouse carrageenan-induced paw edema model assessed as reduction of paw exudate volume at 2.5 mg/kg, ip administered 1 hr followed by carrageenan challenge; assay type: functional, organism-based
[4] = molecular target: T1, Guanine nucleotide-binding protein G(I)/G(S)/G(T) subunit beta-1/gamma-2 (Homo sapiens, UniProt P62873+P59768); assay: Inhibition of SIGKAFKILGYPDYD binding to biotinylated Gbeta1gamma2 (unknown origin) incubated for 1 hr by phage ELISA; assay type: protein-complex assay
[5] = molecular target: T1, Guanine nucleotide-binding protein G(I)/G(S)/G(T) subunit beta-1/gamma-2; assay: Inhibition of SIGKAFKILGYPDYD binding to biotinylated Gbeta1gamma2 (unknown origin) at 300 uM incubated for 1 hr by phage ELISA; assay type: protein-complex assay
[6] = molecular target: Delta-type opioid receptor (Homo sapiens) (UniProt P41143); assay: Inhibition of human Gbetagamma-dependent delta opioid receptor-mediated PLC activation expressed in CHO cells assessed as reduction of DPDPE-mediated total inositol phosphate production at 10 uM after 30 mins by scintillation counting analysis in presence of [3H]inositol; assay type: functional, cell-based
[7] = molecular target: T1, Guanine nucleotide-binding protein G(I)/G(S)/G(T) subunit beta-1/gamma-2; assay: Inhibition of biotinylated Gbeta1gamma2 (unknown origin) binding to PLCbeta2 at 10 uM incubated for 16 hrs; assay type: protein-complex assay
[8] = molecular target: T1, Guanine nucleotide-binding protein G(I)/G(S)/G(T) subunit beta-1/gamma-2; assay: Inhibition of biotinylated Gbeta1gamma2 (unknown origin) binding to PLCbeta3 at 10 uM incubated for 16 hrs; assay type: protein-complex assay
HL-60 [9] = assay: Binding affinity to Gbetagamma in human HL60 cells assessed as inhibition of fMLP-stimulated GRK2 translocation at 10 uM incubated for 5 mins prior to fMLP stimulation by Western blot analysis; assay type: cell-based
HL-60 [10] = assay: Binding affinity to Gbetagamma in human HL60 cells assessed as inhibition of fMLP-stimulated Ca2+ release at 10 uM incubated for 5 mins prior to fMLP stimulation by Fura2-AM dye-based assay; assay type: cell-based
HEK293 = assay: Effect on carbachol-dependent Ca2+ release in HEK293 cells expressing M3 muscarinic receptor at 10 uM; assay type: functional, cell-based; conditions: Homo sapiens
HL-60 [11] = assay: Binding affinity to Gbetagamma in human HL60 cells assessed as inhibition of fMLP-stimulated GFP-PHAkt translocation to plasma membrane at 10 uM incubated for 5 mins prior to fMLP stimulation by Western blot analysis; assay type: cell-based
HL-60 [12] = assay: Effect on fMLP-stimulated ERK1/2 phosphorylation in human HL60 cells at 10 uM incubated for 5 mins prior to fMLP stimulation by Western blot analysis; assay type: functional, cell-based
HL-60 [13] = assay: Binding affinity to Gbetagamma in differentiated human HL60 cells assessed as inhibition of fMLP-stimulated Rac1 activation at 10 uM preincubated for 10 mins followed by fMLP challenge for 90 secs by Western blot analysis; assay type: cell-based
HL-60 [14] = assay: Binding affinity to Gbetagamma in differentiated human HL60 cells assessed as inhibition of fMLP-stimulated superoxide production at 10 uM preincubated for 10 mins followed by nitro blue tetrazolium addition for 5 mins and fMLP addition for 30 mins by NADPH oxidase assay; assay type: cell-based
HL-60 [15] = assay: Antiinflammatory activity in differentiated human HL60 cells assessed as inhibition of fMLP-stimulated cell migration at 10 uM after 1 hr by Boyden chamber method; assay type: functional, cell-based
[16] = Effect on differentiated human HL60 cell motility at 10 uM after 1 hr by Boyden chamber method; assay type: ADME, cell-based; conditions: hl-60, 1 h
Neutrophil [17] = assay: Antiinflammatory activity in primary human neutrophils assessed as inhibition of GM-CSF-stimulated chemotaxis at 1 uM after 1 hr by Boyden chamber method; assay type: functional, cell-based
HL-60 [18] = assay: Antiinflammatory activity in differentiated human HL60 cells assessed as inhibition of fMLP-stimulated chemotaxis by transwell assay; assay type: functional, cell-based
Neutrophil [19] = assay: Antiinflammatory activity in primary human neutrophils assessed as inhibition of IL8-stimulated chemotaxis at 10 uM after 1 hr by Boyden chamber method; assay type: functional, cell-based
Neutrophil [20] = assay: Antiinflammatory activity in primary human neutrophils assessed as inhibition of fMLP-stimulated chemotaxis at 10 uM after 1 hr by Boyden chamber method; assay type: functional, cell-based
Mus musculus [21] = assay: Antinociceptive activity in ICR mouse at 100 nmol, icv after 20 mins by tail flick test relative to control; assay type: functional, organism-based
Mus musculus [22] = assay: Potentiation of morphine-induced antinociceptive activity in PLCbeta3-deficient ICR mouse at 100 nmol, icv after 20 mins by tail flick test; assay type: functional, organism-based
Mus musculus [23] = assay: Potentiation of morphine-induced antinociceptive activity in ICR mouse assessed as morphine ED50 at 100 mg/kg, ip after 20 mins by tail flick test (reference value: 5 mg/kg); assay type: functional
[24] = molecular target: Mu-type opioid receptor (Homo sapiens) (UniProt P35372); assay: Inhibition of human Gbetagamma-dependent mu opioid receptor-mediated PLC activation expressed in CHO cells assessed as reduction of DAMGO-mediated total inositol phosphate production at 10 uM after 30 mins by scintillation counting analysis in presence of [3H]inositol; assay type: functional, cell-based
CHO [25] = assay: Effect on total inositol phosphate production in CHO cells expressing human mu opioid receptor at 10 uM after 30 mins by scintillation counting analysis in presence of [3H]inositol; assay type: ADME, cell-based, Cricetulus griseus; conditions: chinese hamster, 0.5 h
[26] = molecular target: Mu-type opioid receptor (Homo sapiens) (UniProt P35372); assay: Inhibition of human Gbetagamma-dependent mu opioid receptor-mediated PLC activation expressed in CHO cells assessed as reduction of morphine-mediated total inositol phosphate production at 10 uM after 30 mins by scintillation counting analysis in presence of [3H]inositol; assay type: functional, cell-based
CHO [27] = assay: Reduction of U50,488-mediated total inositol phosphate production in CHO cells expressing human mu opioid receptor at 10 uM after 30 mins by scintillation counting analysis in presence of [3H]inositol; assay type: functional, cell-based; conditions: Cricetulus griseus
CHO [28] = assay: Reduction of DPDPE-mediated total inositol phosphate production in CHO cells expressing human mu opioid receptor at 10 uM after 30 mins by scintillation counting analysis in presence of [3H]inositol; assay type: functional, cell-based; conditions: Cricetulus griseus
CHO [29] = assay: Inhibition of human Gbetagamma-dependent kappa opioid receptor-mediated PLC activation expressed in CHO cells assessed as reduction of U50,488-mediated total inositol phosphate production at 10 uM after 30 mins by scintillation counting analysis in presence of [3H]inositol; assay type: cell-based
[30] = molecular target: Delta-type opioid receptor (Homo sapiens) (UniProt P41143); assay: Inhibition of human Gbetagamma-dependent delta opioid receptor-mediated PLC activation expressed in CHO cells assessed as reduction of Deltorphin 2-mediated total inositol phosphate production at 10 uM after 30 mins by scintillation counting analysis in presence of [3H]inositol; assay type: functional, cell-based
Mus musculus [31] = species on record: Mus musculus; assay: Inhibition of Gbetagamma in mouse cardiomyocytes assessed as reduction of agonist-stimulated beta adrenergic receptor-mediated GRK2 recruitment to membrane; assay type: cell-based
[32] = Reduction of membrane associated GRK2 level in mouse cardiomyocytes; assay type: ADME, cell-based; conditions: cardiomyocyte
Mus musculus [33] = species on record: Mus musculus; assay: Inhibition of Gbetagamma-mediated GRK2 recruitment in mouse cardiomyocytes assessed as cAMP generation at 10 uM treated for 5 mins; assay type: functional, cell-based
Mus musculus [34] = species on record: Mus musculus; assay: Inhibition of Gbetagamma-mediated GRK2 recruitment in mouse cardiomyocytes assessed as isoproterenol-induced cAMP generation at 10 uM pretreated for 5 mins followed by isoproterenol induction measured after 15 mins; assay type: functional, cell-based
Mus musculus [35] = species on record: Mus musculus; assay: Inhibition of Gbetagamma-GRK2 interaction in mouse cardiomyocytes assessed as increase in contractility; assay type: cell-based
Mus musculus [36] = species on record: Mus musculus; assay: Inhibition of Gbetagamma-GRK2 interaction in mouse cardiomyocytes assessed as increase in isoproterenol-induced contractility; assay type: cell-based
Mus musculus [37] = species on record: Mus musculus; assay: Inhibition of Gbetagamma-GRK2 interaction in mouse cardiomyocytes assessed as increase in contractility in presence of beta adrenergic receptor antagonist propranolol; assay type: cell-based
Mus musculus [38] = species on record: Mus musculus; assay: Inhibition of Gbetagamma-GRK2 interaction in mouse cardiomyocytes assessed as increase in isoproterenol-induced contractility in presence of beta adrenergic receptor antagonist propranolol; assay type: cell-based
Mus musculus [39] = assay: Toxicity in C57/B16 mouse assessed as overt toxic effect at 250 mg/kg/day administered for 2 weeks; assay type: organism-based; conditions: in vivo, 336 h
Mus musculus [40] = assay: Toxicity in C57/B16 mouse assessed as effect on cardiac function at 100 mg/kg, ip qd administered for 7 days by conscious echocardiography; assay type: organism-based; conditions: in vivo, 168 h
Mus musculus [41] = assay: Toxicity in C57/B16 mouse assessed as effect on cardiac morphology at 100 mg/kg, ip qd administered for 7 days by post-mortem test; assay type: organism-based; conditions: in vivo, 168 h
Mus musculus [42] = assay: Inhibition of isoproterenol-mediated decrease in cardiac function in C57/B16 mouse acute model of heart failure at 100 mg/kg, ip qd administered for 7 days by conscious echocardiography; assay type: functional, organism-based
Mus musculus [43] = assay: Inhibition of isoproterenol-mediated decrease in cardiac morphology in C57/B16 mouse acute model of heart failure at 100 mg/kg, ip qd administered for 7 days by post-mortem test; assay type: functional, organism-based
Mus musculus [44] = assay: Inhibition of isoproterenol-mediated interstitial cardiac fibrosis in C57/B16 mouse acute model of heart failure at 100 mg/kg, ip qd administered for 7 days by post-mortem test; assay type: functional, organism-based
Mus musculus [45] = assay: Improvement of cardiac dysfunction in cardiac-specific calsequestrin mouse with dilated cardiomyopathy at 100 mg/kg, ip qd; assay type: functional, organism-based; conditions: Heart
Mus musculus [46] = assay: Improvement of cardiac dysfunction in cardiac-specific calsequestrin mouse with dilated cardiomyopathy at 100 mg/kg, ip qd in presence of beta adrenergic receptor blocker metoprolol; assay type: functional, organism-based; conditions: Heart
Mus musculus [47] = assay: Increase in survival of cardiac-specific calsequestrin mouse with dilated cardiomyopathy at 100 mg/kg, ip qd; assay type: functional, organism-based; conditions: Heart
Mus musculus [48] = assay: Increase in survival of cardiac-specific calsequestrin mouse with dilated cardiomyopathy at 100 mg/kg, ip qd in presence of beta adrenergic receptor blocker metoprolol; assay type: functional, organism-based; conditions: Heart
Mus musculus [49] = assay: Downregulation of GRK2 expression in […] mouse acute model of heart failure at 100 mg/kg, ip qd administered for 7 days by immunoblot analysis; assay type: functional, organism-based

T1 sequence (P59768 2-71 partner limits assumed): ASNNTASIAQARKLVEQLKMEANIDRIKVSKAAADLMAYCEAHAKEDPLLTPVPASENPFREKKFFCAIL
T1 sequence (P62873 2-340 limits assumed): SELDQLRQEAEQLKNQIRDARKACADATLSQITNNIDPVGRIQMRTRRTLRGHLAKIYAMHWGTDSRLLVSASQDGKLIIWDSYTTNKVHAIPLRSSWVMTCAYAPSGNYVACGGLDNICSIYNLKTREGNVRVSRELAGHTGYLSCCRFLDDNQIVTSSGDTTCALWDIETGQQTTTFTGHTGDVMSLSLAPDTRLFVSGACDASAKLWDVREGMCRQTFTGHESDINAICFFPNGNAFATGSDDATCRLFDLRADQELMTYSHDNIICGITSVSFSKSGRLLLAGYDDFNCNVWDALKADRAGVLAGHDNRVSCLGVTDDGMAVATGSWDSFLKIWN
Mu-type opioid receptor (Homo sapiens), sequence (P35372 whole entry): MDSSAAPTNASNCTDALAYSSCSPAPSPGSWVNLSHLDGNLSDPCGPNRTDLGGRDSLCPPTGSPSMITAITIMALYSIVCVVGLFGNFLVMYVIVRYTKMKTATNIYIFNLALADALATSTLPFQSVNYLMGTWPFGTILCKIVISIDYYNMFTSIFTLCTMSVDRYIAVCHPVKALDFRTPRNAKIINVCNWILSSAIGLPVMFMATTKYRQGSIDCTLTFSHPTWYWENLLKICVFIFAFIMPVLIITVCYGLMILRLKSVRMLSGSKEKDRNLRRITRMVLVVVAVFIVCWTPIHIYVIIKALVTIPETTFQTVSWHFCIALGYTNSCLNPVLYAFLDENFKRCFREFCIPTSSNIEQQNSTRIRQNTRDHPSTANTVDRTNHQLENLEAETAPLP
Delta-type opioid receptor (Homo sapiens), sequence (P41143 whole entry): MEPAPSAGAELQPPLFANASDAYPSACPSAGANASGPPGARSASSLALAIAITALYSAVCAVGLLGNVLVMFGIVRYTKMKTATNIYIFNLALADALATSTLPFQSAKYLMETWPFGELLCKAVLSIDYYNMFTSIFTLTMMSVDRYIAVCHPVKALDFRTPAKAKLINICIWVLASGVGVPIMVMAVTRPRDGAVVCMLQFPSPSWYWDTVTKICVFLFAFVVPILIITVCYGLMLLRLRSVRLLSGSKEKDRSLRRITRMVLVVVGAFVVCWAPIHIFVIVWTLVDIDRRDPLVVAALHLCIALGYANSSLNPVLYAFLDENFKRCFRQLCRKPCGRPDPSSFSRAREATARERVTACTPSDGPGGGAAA

Compound: COc1ccc2c(c1)c(CC(=O)O)c(C)n2C(=O)c1ccc(Cl)cc1
inhibition (Mus musculus [1]): Active
inhibition (Mus musculus [2]): Active
Activity (Mus musculus [3]): Active

inhibition [4]: inactive
inhibition [5]: inactive
Compound: Cc1c2cc(O)c(=O)cc-2oc2cc(O)c(O)cc12

inhibition [4]: inactive
inhibition [5]: inactive
Compound: O=C(O)c1ccc(-c2c3ccc(=O)cc-3oc3cc(O)ccc23)cc1

inhibition [6]: inactive
inhibition [7]: Active
inhibition [8]: Active
inhibition [24]: Active
inhibition [26]: Active
inhibition [30]: inactive
inhibition (Mus musculus [31]): Active
inhibition (Mus musculus [37]): inactive
inhibition (Mus musculus [38]): inactive
Compound: O=C(O)C1CCCCC1c1c2ccc(=O)c(O)c-2oc2c(O)c(O)ccc12 (configuration not stated)
inhibition (HL-60 [9]): Active
inhibition (HL-60 [10]): Active
Activity (HEK293): inactive
inhibition (HL-60 [11]): Active
Activity (HL-60 [12]): inactive
inhibition (HL-60 [13]): Active
inhibition (HL-60 [14]): Active
inhibition (HL-60 [15]): Active
Activity [16]: Non-toxic
inhibition (Neutrophil [17]): inactive
inhibition (HL-60 [18]): inactive
inhibition (Neutrophil [19]): Active
inhibition (Neutrophil [20]): Active
Activity (Mus musculus [21]): inactive
Activity (Mus musculus [22]): inactive
ED50 (Mus musculus [23]): 1.3 mg/kg
Activity (CHO [25]): Non-toxic
Activity (CHO [27]): inactive
Activity (CHO [28]): inactive
inhibition (CHO [29]): inactive
Activity [32]: Non-toxic
inhibition (Mus musculus [33]): Active
inhibition (Mus musculus [34]): Active
inhibition (Mus musculus [35]): Active
inhibition (Mus musculus [36]): Active
Activity (Mus musculus [39]): Non-toxic
Activity (Mus musculus [40]): Non-toxic
Activity (Mus musculus [41]): Non-toxic
inhibition (Mus musculus [42]): Active
inhibition (Mus musculus [43]): Active
inhibition (Mus musculus [44]): Active
Activity (Mus musculus [45]): Active
Activity (Mus musculus [46]): Active
Activity (Mus musculus [47]): Active
Activity (Mus musculus [48]): Active
Activity (Mus musculus [49]): Active
